pIC50: −log10 of the molar value.
Experiments:
MDA-MB-231 [1] = assay: Growth inhibition of human MDA-MB-231 cells at 100 uM after 24 hrs by MTT assay; assay type: functional; settings: MDA-MB-231, 24 h
MDA-MB-231 [2] = assay: Growth inhibition of human MDA-MB-231 cells after 24 hrs by MTT assay; assay type: functional, cell-based; settings: MDA-MB-231, 24 h

pIC50 (MDA-MB-231 [2]) | SMILES | inhibition at 100 µM (MDA-MB-231 [1]) [%]
– | O=C(N/N=C/c1ccc(Cl)cc1)c1ccc(O[C@@H]2O[C@H](CO)[C@@H](O)[C@H](O)[C@H]2O)cc1 (stereo in doubt) | 2.26
6.02 | CC(=O)OC[C@H]1O[C@@H](Oc2ccc(-c3nnc(-c4ccc([N+](=O)[O-])cc4)o3)cc2)[C@H](OC(C)=O)[C@@H](OC(C)=O)[C@@H]1OC(C)=O | 58
5.22 | CC(=O)OC[C@H]1O[C@@H](Oc2ccc(-c3nnc(-c4ccccc4)o3)cc2)[C@H](OC(C)=O)[C@@H](OC(C)=O)[C@@H]1OC(C)=O | 29.5
– | Cc1ccc(/C=N/NC(=O)c2ccc(O[C@@H]3O[C@H](CO)[C@@H](O)[C@H](O)[C@H]3O)cc2)cc1 (stereo in doubt) | 9.28
– | O=C(N/N=C/c1ccc(F)cc1)c1ccc(O[C@@H]2O[C@H](CO)[C@@H](O)[C@H](O)[C@H]2O)cc1 (stereo in doubt) | 9.91
– | O=C(N/N=C/c1ccccc1)c1ccc(O[C@@H]2O[C@H](CO)[C@@H](O)[C@H](O)[C@H]2O)cc1 | 3.56
5.03 | COc1ccc(-c2nnc(-c3ccc(O[C@@H]4O[C@H](COC(C)=O)[C@@H](OC(C)=O)[C@H](OC(C)=O)[C@H]4OC(C)=O)cc3)o2)cc1 | 26
– | O=C(N/N=C/c1cccc([N+](=O)[O-])c1)c1ccc(O[C@@H]2O[C@H](CO)[C@@H](O)[C@H](O)[C@H]2O)cc1 | 6.23
– | CC(=O)OC[C@H]1O[C@@H](Oc2ccc(-c3nnc(C4CCCCC4)o3)cc2)[C@H](OC(C)=O)[C@@H](OC(C)=O)[C@@H]1OC(C)=O | 11.6
5.28 | CN(CCOc1ccc(CC2SC(=O)NC2=O)cc1)c1ccccn1 (stereo not given) [ROSIGLITAZONE] | 34.2
5.97 | CC(=O)OC[C@H]1O[C@@H](Oc2ccc(-c3nnc(-c4cccc(C#N)c4)o3)cc2)[C@H](OC(C)=O)[C@@H](OC(C)=O)[C@@H]1OC(C)=O | 44.1
6.59 | CC(=O)OC[C@H]1O[C@@H](Oc2ccc(-c3nnc(-c4ccc(F)cc4)o3)cc2)[C@H](OC(C)=O)[C@@H](OC(C)=O)[C@@H]1OC(C)=O | 54.1
– | O=C(N/N=C/c1ccc([N+](=O)[O-])cc1)c1ccc(O[C@@H]2O[C@H](CO)[C@@H](O)[C@H](O)[C@H]2O)cc1 | 7.12
5.87 | CC(=O)OC[C@H]1O[C@@H](Oc2ccc(-c3nnc(-c4cccc(Cl)c4)o3)cc2)[C@H](OC(C)=O)[C@@H](OC(C)=O)[C@@H]1OC(C)=O | 36.7
– | CC(=O)OC[C@H]1O[C@@H](Oc2ccc(-c3nnc(C(C)C)o3)cc2)[C@H](OC(C)=O)[C@@H](OC(C)=O)[C@@H]1OC(C)=O | 11.9
– | CCCCC/C=N/NC(=O)c1ccc(O[C@@H]2O[C@H](CO)[C@@H](O)[C@H](O)[C@H]2O)cc1 | 11
– | N#Cc1cccc(/C=N/NC(=O)c2ccc(O[C@@H]3O[C@H](CO)[C@@H](O)[C@H](O)[C@H]3O)cc2)c1 | 6.17
5.44 | CC(=O)OC[C@H]1O[C@@H](Oc2ccc(-c3nnc(-c4cccc([N+](=O)[O-])c4)o3)cc2)[C@H](OC(C)=O)[C@@H](OC(C)=O)[C@@H]1OC(C)=O | 40.1
– | CC(C)/C=N/NC(=O)c1ccc(O[C@@H]2O[C@H](CO)[C@@H](O)[C@H](O)[C@H]2O)cc1 | 1.7
6.05 | CC(=O)OC[C@H]1O[C@@H](Oc2ccc(-c3nnc(-c4ccc(Cl)cc4)o3)cc2)[C@H](OC(C)=O)[C@@H](OC(C)=O)[C@@H]1OC(C)=O | 42.1
– | O=C(N/N=C/c1cccc(Cl)c1)c1ccc(O[C@@H]2O[C@H](CO)[C@@H](O)[C@H](O)[C@H]2O)cc1 | 5.02
5.08 | CCCCCc1nnc(-c2ccc(O[C@@H]3O[C@H](COC(C)=O)[C@@H](OC(C)=O)[C@H](OC(C)=O)[C@H]3OC(C)=O)cc2)o1 | 21.5
– | COc1ccc(/C=N/NC(=O)c2ccc(O[C@@H]3O[C@H](CO)[C@@H](O)[C@H](O)[C@H]3O)cc2)cc1 (stereo in doubt) | 11.3
– | O=C(N/N=C/C1CCCCC1)c1ccc(O[C@@H]2O[C@H](CO)[C@@H](O)[C@H](O)[C@H]2O)cc1 | 0.88
– | CC(=O)OC[C@H]1O[C@@H](Oc2ccc(-c3nnc(-c4ccc(C)cc4)o3)cc2)[C@H](OC(C)=O)[C@@H](OC(C)=O)[C@@H]1OC(C)=O | 13.1

Source: ChEMBL document CHEMBL3351475, “Synthesis and anti-tumor activity of glycosyl oxadiazoles derivatives” (Bioorg Med Chem Lett, 2014)
